Where two headings read alike, the source gives them in different places.

Test [1] concerns the target GDP-bound KRAS wild-type protein (Homo sapiens, UniProt P01116). Kind of test: Binding to KRAS by surface plasmon resonance (SPR), dissociation constant KD. In short, it runs like this:
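SPR, 30°C: Avi-biotin RAS·GDP captured via Biotin CAPture (~100–300 RU); running buffer HBS pH 7.4, 1 mM DTT, 10 mM MgCl2, 0.01% Tween 20, 10 µM GDP, 4% DMSO. Single-cycle kinetics, 100 µL/min, 75 s injections; 1:1 model → KD.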
On the technique in general: In SPR one partner is held on a chip, and binding of the other changes the refractive index at the surface.

Test [2] has as its target GDP-bound NRAS wild-type protein (Homo sapiens, UniProt P01111). The test is described as follows: Binding to NRAS by surface plasmon resonance (SPR), KD and KD ratio to KRAS. In short, it runs like this: (§1)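 Compound binding is evaluated by SPR single-cycle kinetics, with concentrations added intermittently from low to high for 75 s each. Target surfaces carry GDP-loaded biotinylated Avi-RAS at about 100–300 RU, regenerated after each cycle; temperature 30°C. A 1:1 binding model gives KD.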

Test [3] addresses HRAS wild-type protein (Homo sapiens, UniProt P01112). Kind of test: Binding to HRAS by surface plasmon resonance (SPR), KD and KD ratio to KRAS. In short, it runs like this: as §1
In test [4] the test system is human lung cancer strain NCI-H441. Kind of test: NCI-H441 cell proliferation inhibitory activity (CellTiter-Glo, 4 days). In kind it is cell-based. The note with it: read-out: NCl-H441 IC50. In short, it runs like this:
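Proliferation was scored by […] measured after the reagent was added to cultures kept at 37°C in 5% carbon dioxide.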
Background: In ATP-based viability assays light output follows the ATP content of the culture.

Where [5] appears, read: Single Cycle Kinetics, 1:1 binding model.
Where [6] appears, read: ratio of KD with respect to GDP-bound NRAS wild-type protein to KD with respect to KRAS.
[7] abbreviates: ratio of KD with respect to HRAS wild-type protein to KD with respect to KRAS.
Where [8] appears, read: 50% proliferation inhibitory concentration, four days.
[9] abbreviates: ratio of KD for GDP-bound NRAS wild-type protein to KD for KRAS.
Setting [10] is: ratio of KD for HRAS wild-type protein to KD for KRAS.

Sequence of HRAS wild-type protein (P01112 whole entry): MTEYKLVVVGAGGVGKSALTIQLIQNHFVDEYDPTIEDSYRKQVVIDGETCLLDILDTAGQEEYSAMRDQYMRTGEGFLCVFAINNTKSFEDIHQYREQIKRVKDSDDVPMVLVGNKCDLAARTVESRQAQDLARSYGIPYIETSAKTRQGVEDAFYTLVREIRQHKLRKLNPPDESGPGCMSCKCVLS
Sequence of GDP-bound KRAS wild-type protein (P01116 1-188 isoform P01116-2): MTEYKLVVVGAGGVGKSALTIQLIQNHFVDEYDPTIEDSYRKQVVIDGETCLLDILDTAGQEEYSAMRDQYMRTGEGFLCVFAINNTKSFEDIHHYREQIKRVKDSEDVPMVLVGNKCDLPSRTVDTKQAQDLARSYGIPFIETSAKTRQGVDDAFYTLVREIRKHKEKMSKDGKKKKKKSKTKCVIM
Sequence of GDP-bound NRAS wild-type protein (P01111 whole entry): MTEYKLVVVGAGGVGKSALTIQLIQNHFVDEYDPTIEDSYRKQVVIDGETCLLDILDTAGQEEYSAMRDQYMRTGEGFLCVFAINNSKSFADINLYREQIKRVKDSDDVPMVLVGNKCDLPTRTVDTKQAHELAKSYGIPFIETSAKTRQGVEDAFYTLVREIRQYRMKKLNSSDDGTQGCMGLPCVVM

For `CCO[C@@H]1C[C@H]2C(=O)NC3(CCC3)C(=O)N(C)[C@@H](C3CCCC3)C(=O)N(C)[C@H](C)CC(=O)N(C)[C@@H](CC3CC3)C(=O)N[C@@H]([C@@H](C)CC)C(=O)N(C)CC(=O)N(C)[C@H]3C/C=C\CCN(C3=O)[C@@H](Cc3ccc(C)cc3)C(=O)N(C)CC(=O)N[C@@H](CCc3cc(F)c(C(F)(F)F)c(F)c3)C(=O)N2C1` [PP1410], the affinity in test [1] (setting [5]), expressed as Kd, was 0.32 nM. The “NRAS /KRAS” value in test [2] (setting [6]) is “B (a compound having 3 or more and less than 10 is denoted as B)”. The “HRAS /KRAS” value in test [3] (setting [7]) was “B (a compound having 3 or more and less than 10 is denoted as B)”. Also, the IC50 (usually the concentration that inhibits the measured activity by half) in test [4] (setting [8]) worked out at 51 nM.
As to `CCCOC[C@H]1C(=O)N[C@@H]([C@@H](C)CC)C(=O)N2CCC[C@H]2C(=O)N(C)[C@H]2C/C=C\CCN(C2=O)[C@@H](CC2CCC(F)(F)CC2)C(=O)N(C)CC(=O)N[C@@H](CCc2ccc(C(F)(F)F)c(OC)c2)C(=O)N2C[C@@H](C)C[C@H]2C(=O)N(C)C2(CCC2)C(=O)N(C)[C@@H](C2CCCC2)C(=O)N(C)[C@H](C(=O)N(C)C)CC(=O)N1C` [PP2381], the Kd (as a rule, the constant that tells how readily two partners part at equilibrium) in test [1] (1:1 binding model) stood at 0.93 nM. Besides, in test [2] (setting [9]), the “NRAS /KRAS” value was “A (a compound having 10 or more and less than 20 is denoted as A)”. Besides, the “HRAS /KRAS” value in test [3] (setting [10]) is “A (a compound having 10 or more and less than 20 is denoted as A)”. For the same compound, the IC50 in test [4] (NCI-H441 cells, 4 days) stood at 3.2 nM.
`CCCOC[C@H]1C(=O)N[C@@H]([C@@H](C)CC)C(=O)N(C)CC(=O)N(C)[C@H]2C/C=C\CCN(C2=O)[C@@H](CC2CCC(F)(F)CC2)C(=O)N(C)CC(=O)N[C@@H](CCc2ccc(C(F)(F)F)c(Cl)c2)C(=O)N2C[C@H](OCC)C[C@H]2C(=O)NC2(CC(C)(C)C2)C(=O)N(C)[C@@H](C(CC)CC)C(=O)N(C)[C@H](C(=O)N(C)C)CC(=O)N1C` [PP2484] gave a Kd in test [1] (1:1 binding model) of 1 nM. In addition, in test [2] (setting [9]), the “NRAS /KRAS” value is “A (a compound having 10 or more and less than 20 is denoted as A)”. Moreover, the “HRAS /KRAS” value in test [3] (setting [10]) is “A (a compound having 10 or more and less than 20 is denoted as A)”. In addition, in test [4] (NCI-H441 cells, 4 days), the IC50 was 74.3 nM.
In turn, `CCO[C@@H]1C[C@H]2C(=O)NC3(CCC3)C(=O)N(C)[C@@H](C3CCCC3)C(=O)N(C)[C@H](C(=O)N3CCOCC3)CC(=O)N(C)[C@@H](CC(C)C)C(=O)N[C@@H]([C@@H](C)CC)C(=O)N3CC[C@H]3C(=O)N(C)[C@H]3C[C@@H](C)[C@@H](C)CN(C3=O)[C@@H](Cc3ccc(C(F)(F)F)cc3)C(=O)N(C)CC(=O)N[C@@H](CCc3ccc(C(F)(F)F)c(Cl)c3)C(=O)N2C1` [PP1361] had a Kd in test [1] (setting [5]) of 0.15 nM. The “NRAS /KRAS” value in test [2] (setting [6]) was “A (a compound having 10 or more and less than 20 is denoted as A)”. For the same compound, the “HRAS /KRAS” value in test [3] (setting [7]) is “B (a compound having 3 or more and less than 10 is denoted as B)”. Further, in test [4] (setting [8]), the IC50 was determined as 6.2 nM.
In test [1] (1:1 binding model), `CCC[C@H]1C(=O)N[C@@H]([C@@H](C)CC)C(=O)N2CCC[C@H]2C(=O)N(C)[C@H]2C/C=C\CCN(C2=O)[C@@H](Cc2ccc(C)cc2)C(=O)N(C)CC(=O)N[C@@H](CCc2ccc(C(F)(F)F)c(OC)c2)C(=O)N2C[C@@H](C)C[C@H]2C(=O)N(C)C2(CCC2)C(=O)N(C)[C@@H](C2CCCC2)C(=O)N(C)[C@H](C(=O)N(C)C)CC(=O)N1C` [PP2368] showed a Kd of 0.045 nM. The “NRAS /KRAS” value in test [2] (setting [9]) is “A (a compound having 10 or more and less than 20 is denoted as A)”. In addition, the “HRAS /KRAS” value in test [3] (setting [10]) was “A (a compound having 10 or more and less than 20 is denoted as A)”. In addition, in test [4] (NCI-H441 cells, 4 days), the IC50 was 4.1 nM.
Regarding `CCO[C@@H]1C[C@H]2C(=O)NC3(CCC3)C(=O)N(C)[C@@H](C3CCCC3)C(=O)N(C)[C@H](C(=O)N(C)C)CC(=O)N(C)[C@@H](CC(C)C)C(=O)N[C@@H]([C@@H](C)CC)C(=O)N(C)CC(=O)N(C)[C@H]3C/C=C\CCN(C3=O)[C@@H](CC3CCCCC3)C(=O)N(C)CC(=O)N[C@@H](CCc3cc(F)c(C(F)(F)F)c(F)c3)C(=O)N2C1` [PP1467], binding in test [1] (setting [5]) was characterised by a dissociation constant (Kd) of 0.12 nM. In test [2] (setting [6]), the “NRAS /KRAS” value is “A (a compound having 10 or more and less than 20 is denoted as A)”. Moreover, the “HRAS /KRAS” value in test [3] (setting [7]) was “A (a compound having 10 or more and less than 20 is denoted as A)”. Also, the IC50 in test [4] (setting [8]) worked out at 11.2 nM.
For `CCO[C@@H]1C[C@H]2C(=O)OC3(CCC3)C(=O)N(C)[C@@H](C3CCCC3)C(=O)N(C)[C@H](C(=O)N(C)C)CC(=O)N(C)[C@@H]([C@@H](C)OC)C(=O)N[C@@H]([C@@H](C)CC)C(=O)N(C3CC3)CC(=O)N(C)[C@H]3C/C=C\CCN(C3=O)[C@@H](Cc3ccc(C(F)(F)F)cc3)C(=O)N(C)CC(=O)N[C@@H](CCc3ccc(C(F)(F)F)c(OC)c3)C(=O)N2C1` [PP3375], the affinity in test [1] (Single Cycle Kinetics), expressed as Kd, was 0.41 nM. The “NRAS /KRAS” value in test [2] (setting [9]) was “A (a compound having 10 or more and less than 20 is denoted as A)”. Moreover, the “HRAS /KRAS” value in test [3] (setting [10]) is “B (a compound having 3 or more and less than 10 is denoted as B)”. Besides, the IC50 in test [4] (NCI-H441 cells, 4 days) is 6 nM.
In the case of `CCC[C@H]1C(=O)N[C@@H]([C@@H](C)CC)C(=O)N(C)CC(=O)N(C)[C@H]2C/C=C\CCN(C2=O)[C@@H](Cc2ccc(C)cc2)C(=O)N(C)CC(=O)N[C@@H](CCc2ccc(C(F)(F)F)c(OC)c2)C(=O)N2CC3(CC3)C[C@H]2C(=O)N(C)C2(CCC2)C(=O)N(C)[C@@H](C2CCCC2)C(=O)N(C)[C@H](C(=O)N(C)C)CC(=O)N1C` [PP3290], the Kd in test [1] (Single Cycle Kinetics) worked out at 0.021 nM. Moreover, in test [2] (setting [9]), the “NRAS /KRAS” value is “A (a compound having 10 or more and less than 20 is denoted as A)”. In test [3] (setting [10]), the “HRAS /KRAS” value was “B (a compound having 3 or more and less than 10 is denoted as B)”. For the same compound, the IC50 in test [4] (NCI-H441 cells, 4 days) came out at 1.9 nM.
In turn, `CCO[C@H](C)[C@@H]1NC(=O)[C@H](CC(C)C)N(C)C(=O)C[C@@H](C(=O)N(C)C)N(C)C(=O)[C@H](C2CCCC2)N(C)C(=O)C2(CC(C)(C)C2)NC(=O)[C@@H]2C[C@H](C)CN2C(=O)[C@H](CCc2ccc(C(F)(F)F)c(OC)c2)NC(=O)CN(C)C(=O)[C@H](Cc2ccc(C)cc2)N2CC/C=C\C[C@@H](C2=O)N(C)C(=O)[C@@H]2CCCN2C1=O` [PP2418] came in with a Kd in test [1] (1:1 binding model) of 0.97 nM. Also, the “NRAS /KRAS” value in test [2] (setting [9]) was “A (a compound having 10 or more and less than 20 is denoted as A)”. In addition, in test [3] (setting [10]), the “HRAS /KRAS” value was “B (a compound having 3 or more and less than 10 is denoted as B)”. Moreover, in test [4] (NCI-H441 cells, 4 days), the IC50 worked out at 132 nM.
Compound `CCC[C@H]1C(=O)N[C@@H]([C@@H](C)CC)C(=O)N(C)CC(=O)N(C)[C@H]2C/C=C\CCN(C2=O)[C@@H](Cc2ccc(C)cc2)C(=O)N(C)CC(=O)N[C@@H](CCc2ccc(C(F)(F)F)c(Cl)c2)C(=O)N2CC3(CC3)C[C@H]2C(=O)NC2(CCC2)C(=O)N(C)[C@@H](C(CC)CC)C(=O)N(C)[C@H](C(=O)N(C)C)CC(=O)N1C` [PP3424] yielded a Kd in test [1] (Single Cycle Kinetics) of 0.48 nM. Besides, the “NRAS /KRAS” value in test [2] (setting [9]) is on record as “AA (a compound having 20 or more is denoted as AA)”. In addition, the “HRAS /KRAS” value in test [3] (setting [10]) was “A (a compound having 10 or more and less than 20 is denoted as A)”. Besides, the IC50 in test [4] (NCI-H441 cells, 4 days) is 27.2 nM.
`C#CC[C@H]1C(=O)N[C@@H]([C@@H](C)CC)C(=O)N(C)CC(=O)N(C)[C@H]2C/C=C\CCN(C2=O)[C@@H](Cc2ccc(C)cc2)C(=O)N(C)CC(=O)N[C@@H](CCc2ccc(C(F)(F)F)c(Cl)c2)C(=O)N2C[C@H](OCC)C[C@H]2C(=O)N(C)C2(CCC2)C(=O)N(C)[C@@H](C2CCCC2)C(=O)N(C)[C@H](C(=O)N(C)C)CC(=O)N1C` [PP3240] gave a Kd in test [1] (Single Cycle Kinetics) of 0.024 nM. The “NRAS /KRAS” value in test [2] (setting [9]) is “A (a compound having 10 or more and less than 20 is denoted as A)”. Also, the “HRAS /KRAS” value in test [3] (setting [10]) is “A (a compound having 10 or more and less than 20 is denoted as A)”. For the same compound, in test [4] (NCI-H441 cells, 4 days), the IC50 was 2.3 nM.

The values above are taken from EP4603105A1, “PHARMACEUTICAL COMPOSITION CONTAINING CYCLIC COMPOUND HAVING SELECTIVE KRAS INHIBITORY EFFECT AGAINST HRAS AND NRAS” (CHUGAI SEIYAKU KABUSHIKI KAISHA, priority 2022, dated 2024).
